Measurements reported in ChEMBL document CHEMBL1150281, “Oleanane-type triterpenes from the flowers and roots of Saussurea muliensis” (2008).

Experiments:
Assay type in all cases: functional
Escherichia coli = experiment: Antimicrobial activity against Escherichia coli ATCC 25922
Candida albicans = experiment: Antimicrobial activity against Candida albicans
Staphylococcus aureus = experiment: Antimicrobial activity against Staphylococcus aureus ATCC 25923
Bacillus cereus = experiment: Antimicrobial activity against Bacillus cereus

Measured: MIC

CC(=O)O[C@@H]1CC[C@]2(C)[C@H]3CC=C4[C@@H]5C[C@](O)(CO)[C@H](O)[C@H](OC(C)=O)[C@]5(C)CC[C@@]4(C)[C@]3(C)CC[C@H]2C1(C)C
> 50 µg/mL: all assays above

CC1(C)[C@H](OC(=O)/C=C/c2ccc(O)c(O)c2)CC[C@]2(C)[C@H]3CC=C4[C@@H]5C[C@@](C)(C(=O)O)CC[C@]5(C)CC[C@@]4(C)[C@]3(C)CC[C@@H]12
> 50 µg/mL: all assays above

CCCCCCCCCCCCCCCC(=O)OC[C@@]1(O)C[C@H]2C3=CC[C@@H]4[C@@]5(C)CC[C@@H](OC(C)=O)C(C)(C)[C@@H]5CC[C@@]4(C)[C@]3(C)CC[C@@]2(C)[C@@H](OC(C)=O)[C@H]1O
> 50 µg/mL: all assays above

CC1(C)[C@H](OC(=O)/C=C/c2ccc(O)cc2)CC[C@]2(C)[C@H]3CC=C4[C@@H]5C[C@@](C)(C(=O)O)CC[C@]5(C)CC[C@@]4(C)[C@]3(C)CC[C@@H]12
> 50 µg/mL: all assays above

CC1(C)[C@@H](O)CC[C@]2(C)[C@H]3CC=C4[C@@H]5C[C@@](C)(C(=O)O)C[C@H](O)[C@]5(C)CC[C@@]4(C)[C@]3(C)CC[C@@H]12
> 50 µg/mL: all assays above

CO[C@]1(CO)C[C@H]2C3=CC[C@@H]4[C@@]5(C)CC[C@@H](OC(C)=O)C(C)(C)[C@@H]5CC[C@@]4(C)[C@]3(C)CC[C@@]2(C)[C@@H](OC(C)=O)[C@H]1O
> 50 µg/mL: all assays above
